“Also recorded” adds a separate entry of the source.
Key:
Assay type in all cases: biochemical
[1] = biological target: T1, Horseradish peroxidase (HRP) (Armoracia rusticana, UniProt P00433); assay: HRP-catalyzed oxidation of L012 (chemiluminescence)
T1 construct: purchased Merck (Darmstadt, Germany)
T1 sequence (P00433 31-338 limits assumed): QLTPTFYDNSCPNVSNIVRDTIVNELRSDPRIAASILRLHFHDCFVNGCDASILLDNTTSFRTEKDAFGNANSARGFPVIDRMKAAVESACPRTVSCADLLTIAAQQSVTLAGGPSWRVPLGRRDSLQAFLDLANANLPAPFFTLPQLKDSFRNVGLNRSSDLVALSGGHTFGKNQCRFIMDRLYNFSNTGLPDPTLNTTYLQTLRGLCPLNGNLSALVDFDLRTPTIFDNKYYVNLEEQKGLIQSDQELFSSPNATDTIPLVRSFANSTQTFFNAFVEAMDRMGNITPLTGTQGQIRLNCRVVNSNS
Experimental: […] (HRP) reacts with hydrogen peroxide (H2O2), yielding “compound I (HRP^+.-Fe (IV=O))”, which is a reactive intermediate of HRP that is able to oxidize any potential reducing agent. Briefly, 2 μL of compound or reference molecule (ellagic acid) were incubated in phosphate buffer at pH 7.4 (153 μL, 50 mM) containing 5 μL HRP (100 µg/L), 20 μL L0-12 (10^−3 M), and 20 μL H2O2 (1 mM), and the chemiluminescence was immediately measured using a Fluoroskan Ascent 96-plate reader (ThermoLabsystem, Finland) at 37 °C for 30 min [32, 34]. The analysis was conducted in a 96-well microtiter plate. All the assays were performed in triplicate and repeated at least twice (N = 2; n = 6). The relative activity in terms of inhibition percentage of the tested compound or reference (ellagic acid) was compared to a control in the presence of DMSO taken as a solvent. The inhibition percentage was calculated using a similar formula (Equation (1)) as described above.

[2] = biological target: T2, human myeloperoxidase (MPO) (Homo sapiens, UniProt P05164); assay: MPO activity by SIEFED assay
T2 construct: purchased Calbiochem Millipore
T2 sequence (P05164 49-745): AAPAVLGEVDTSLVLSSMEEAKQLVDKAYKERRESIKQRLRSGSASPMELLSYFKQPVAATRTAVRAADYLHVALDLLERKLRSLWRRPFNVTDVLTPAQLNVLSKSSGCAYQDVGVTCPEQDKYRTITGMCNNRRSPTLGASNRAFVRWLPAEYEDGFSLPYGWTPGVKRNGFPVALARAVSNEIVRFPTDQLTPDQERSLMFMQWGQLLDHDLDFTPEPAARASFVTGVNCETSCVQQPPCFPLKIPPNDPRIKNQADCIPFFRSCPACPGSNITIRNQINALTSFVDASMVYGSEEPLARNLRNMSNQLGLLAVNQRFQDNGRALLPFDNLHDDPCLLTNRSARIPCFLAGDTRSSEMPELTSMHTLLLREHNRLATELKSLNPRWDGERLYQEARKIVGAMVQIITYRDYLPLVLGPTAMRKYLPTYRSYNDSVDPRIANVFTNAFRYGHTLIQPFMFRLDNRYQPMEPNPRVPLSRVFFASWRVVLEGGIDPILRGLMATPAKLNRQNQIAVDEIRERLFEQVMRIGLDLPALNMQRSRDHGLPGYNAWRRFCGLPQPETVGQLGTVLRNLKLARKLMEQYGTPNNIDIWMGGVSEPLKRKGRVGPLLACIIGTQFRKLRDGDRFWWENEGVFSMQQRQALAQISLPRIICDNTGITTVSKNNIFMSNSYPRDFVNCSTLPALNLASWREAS
Experimental: (§1) Measurement of the peroxidase activity of MPO was performed by a classical enzymatic assay and by SIEFED assay as described by Nyssen et al.. The MPO solution was prepared with purified human MPO in dilution buffer (PBS 20 mM at pH 7.4 with 5 g/L BSA and 0.1% Tween-20). The solutions of EA or analogue, at final concentrations ranging from 10^−8 M to 10^−5 M, were incubated for 10 min with human MPO at a final concentration of 5 mU/mL before further use. The revelation of MPO activity was performed by monitoring the enzyme-catalyzed oxidation of Amplex Red in the presence of H2O2 (10 μM) and nitrite (4.5 mM) in phosphate buffer at pH 7.4.
Samples with MPO and various concentrations of […] were prepared and incubated as with the classical assay. An amount of 100 μL of each mixture (MPO alone or MPO + EA/DMSO) was then loaded into the wells of a SIEFED microtiter plate coated with rabbit polyclonal antibodies (3 μg/mL) against human MPO and incubated for 2 h at 37 °C in darkness. After washing up the wells, the activity of the enzyme captured by the antibodies was measured by adding 10 μL sodium nitrite solution (4.5 mM, final concentration) and 100 μL of a reactional solution containing 10 μM H2O2 and 40 μM Amplex® in phosphate buffer (50 mM) at pH 7.4. The oxidation of Amplex® Red into the fluorescent adduct resorufin (λexcitation = 544 nm; λemission = 590 nm) was monitored for 30 min at 37 °C with a fluorescent plate reader (Fluoroskan Ascent, Fisher Scientific). As for the MPO direct assay, a control assay set as the relative value of MPO activity was performed with purified MPO in the presence of PBS instead of the samples of EA or analogue dissolved in DMSO. In this SIEFED assay, MPO was bonded by the antibodies into the wells, and EA/analogue was discarded in the washing step before starting the measurement of the enzymatic activity. For both MPO assays, the inhibition percentage was calculated using a similar formula (Equation (1)) as described above.

[3] = biological target: T2, human myeloperoxidase (MPO); assay: MPO peroxidase activity, classical assay (Amplex Red)
Experimental: as §1
After incubation, mixtures containing 100 μL of EA/analogue or vehicle (DMSO) and MPO were loaded into wells of microtiter plates (transparent), and the peroxidase activity was measured by adding 10 μL sodium nitrite solution (4.5 mM, final concentration) and 100 μL of the reactional solution containing 10 µM H2O2 and 40 µM Amplex® Red (AR) in phosphate buffer (50 mM) at pH 7.4. The oxidation of AR into the fluorescent resorufin adduct (λexcitation = 544 nm; λemission = 590 nm) was monitored for 30 min at 37 °C with a fluorescent plate reader (Fluoroskan Ascent, Fisher Scientific, Hampton, NH, USA). To eliminate the possibility of the artifact reactions that might arise from MPO activity or its natural substrate (H2O2), the direct reaction of ellagic acid or an analogue with H2O2 was performed in phosphate buffer (PBS) without the addition of human MPO.

Row | IC50 [1] [µM] | SMILES | HRP inhibiting activity (in words) [1] | MPO activity, SIEFED assay (in words) [2] | MPO inhibition, classical assay (in words) [3]
1 | – | CN(C)C(=O)Oc1cc2c(=O)oc3c(OC(=O)N(C)C)c(OC(=O)N(C)C)cc4c(=O)oc(c1OC(=O)N(C)C)c2c34 [compound 6, Sevellagic acid] | lack of effect | weak activity or the absence of inhibition activity | lack of effect
2 | 3.55 ± 0.37 | CCOC1Oc2cc(C(=O)OC)cc(O)c2O1 (centres unmarked) [compound 11, methyl 2-ethoxy-7-hydroxybenzo[d][1,3]dioxole-5-carboxylate] | – | activator of MPO activity; also recorded: promote, rather than inhibit, MPO activity | –
